# Tests used:
# in vivo [1] = conditions: C57BL/6, mouse, iv, 1 mg/kg
# in vivo [2] = conditions: C57BL/6, mouse, brain, iv, 1 mg/kg
# in vivo [3] = conditions: C57BL/6, mouse, iv, 1 mg/kg; remark: listed apart in the source
# in vivo [4] = conditions: C57BL/6, mouse, iv, 1 mg/kg; remark: listed apart in the source
# in vivo [5] = conditions: C57BL/6, mouse, iv, 1 mg/kg; remark: listed apart in the source
# in vivo [6] = conditions: C57BL/6, mouse, iv, 1 mg/kg; remark: listed apart in the source
# NIH3T3 = assay: cells; conditions: Mus musculus, BALB/c, NIH3T3, light or radiation study
# Description: Phototoxicity against BALB/c mouse 3T3 cells assessed as reduction in cell viability preincubated for 1 hr followed by 5 J/cm2 irradiation and subsequent replacement of medium without compound and measured after 24 hrs by neutral red dye based assay
# in vitro = conditions: mouse, nih3t3
# Description: Dark toxicity against BALB/c mouse 3T3 cells assessed as reduction in cell viability incubated for 1 hr by neutral red dye based assay
# [7] = biological target: T1, Thyroid hormone receptor beta (Homo sapiens, UniProt P10828); assay type: cell-based, HEK293T
# T1 sequence (P10828 whole entry): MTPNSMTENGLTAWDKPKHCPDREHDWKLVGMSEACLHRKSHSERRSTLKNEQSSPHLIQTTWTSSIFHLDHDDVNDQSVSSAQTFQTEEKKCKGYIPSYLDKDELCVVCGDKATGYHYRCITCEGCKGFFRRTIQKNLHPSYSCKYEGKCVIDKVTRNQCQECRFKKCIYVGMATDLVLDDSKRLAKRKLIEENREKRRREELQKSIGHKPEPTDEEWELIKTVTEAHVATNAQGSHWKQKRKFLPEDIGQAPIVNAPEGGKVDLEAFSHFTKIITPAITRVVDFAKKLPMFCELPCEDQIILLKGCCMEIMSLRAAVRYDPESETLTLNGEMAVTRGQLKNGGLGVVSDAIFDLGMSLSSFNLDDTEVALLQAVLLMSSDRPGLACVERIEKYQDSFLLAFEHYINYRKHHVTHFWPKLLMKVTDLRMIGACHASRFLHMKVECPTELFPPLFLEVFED
# Description: Antagonist activity at TRbeta in HEK293T cells assessed as reduction in transcriptional activity incubated for 24 hrs by britelite plus reagent based plate reader assay
# Progesterone receptor = biological target: T2, Progesterone receptor (Homo sapiens, UniProt P06401); assay type: cell-based, HEK293T
# T2 sequence (P06401 whole entry): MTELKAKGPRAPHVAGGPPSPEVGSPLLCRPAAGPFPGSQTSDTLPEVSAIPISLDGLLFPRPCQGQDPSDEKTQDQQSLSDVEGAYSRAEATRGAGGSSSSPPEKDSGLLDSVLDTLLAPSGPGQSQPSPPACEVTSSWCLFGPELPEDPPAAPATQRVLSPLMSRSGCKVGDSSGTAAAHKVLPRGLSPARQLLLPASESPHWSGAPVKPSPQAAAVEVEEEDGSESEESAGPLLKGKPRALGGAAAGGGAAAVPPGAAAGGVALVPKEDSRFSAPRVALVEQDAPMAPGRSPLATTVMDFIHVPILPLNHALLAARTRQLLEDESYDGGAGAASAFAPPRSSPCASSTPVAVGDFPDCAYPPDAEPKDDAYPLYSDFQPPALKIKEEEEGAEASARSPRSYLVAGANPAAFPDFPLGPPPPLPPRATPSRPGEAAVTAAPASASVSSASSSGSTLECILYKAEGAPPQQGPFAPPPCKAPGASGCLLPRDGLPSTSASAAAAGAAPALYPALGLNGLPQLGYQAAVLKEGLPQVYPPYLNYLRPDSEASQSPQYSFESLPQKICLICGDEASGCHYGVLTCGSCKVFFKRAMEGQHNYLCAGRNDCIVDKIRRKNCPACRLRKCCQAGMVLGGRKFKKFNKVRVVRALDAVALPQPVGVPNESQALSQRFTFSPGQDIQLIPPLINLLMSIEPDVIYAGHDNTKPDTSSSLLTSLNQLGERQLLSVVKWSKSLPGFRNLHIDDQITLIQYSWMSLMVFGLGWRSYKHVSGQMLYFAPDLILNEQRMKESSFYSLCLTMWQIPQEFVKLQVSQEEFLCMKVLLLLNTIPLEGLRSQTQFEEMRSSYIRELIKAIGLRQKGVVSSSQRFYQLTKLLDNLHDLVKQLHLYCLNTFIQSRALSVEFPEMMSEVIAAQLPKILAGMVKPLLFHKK
# Description: Antagonist activity at PR in HEK293T cells assessed as reduction in transcriptional activity incubated for 24 hrs by britelite plus reagent based plate reader assay
smiles,measurement,setting,value
C[C@](O)(CN1CC2CC(C1)N2c1ccc(C#N)cc1F)C(=O)Nc1cnc(C#N)c(C(F)(F)F)c1,Vd at 24 h,in vivo [1],1.35 L/kg
same,Kp at 24 h,in vivo [2],0.45
same,clearance at 24 h,in vivo [3],37.8 mL/min/kg
same,AUC(0-t) at 24 h,in vivo [4],444 ng·h/mL
same,half-life at 24 h,in vivo [5],54.6 min
same,C0 at 24 h,in vivo [6],1060 ng/mL
CN(C)CCCN1c2ccccc2Sc2ccc(Cl)cc21 [CHLORPROMAZINE],IC50,NIH3T3,0.93 µg/mL
same,IC50 at 1 h,in vitro,45.1 µg/mL
C[C@](O)(CN1CC2CC(C1)N2c1ccc(C#N)cc1)C(=O)Nc1cnc(C#N)c(C(F)(F)F)c1,IC50,[7],> 10 µM
same,IC50,Progesterone receptor,3.5 µM

# Source: ChEMBL document CHEMBL5532667 (J Med Chem, 2024)
